Data reported in patent publication US20220024891A1 (The Board of Regents of the University of Texas System, priority 2018, published 2022).

CC1CCN(C2CCN(S(=O)(=O)c3cccnc3)CC2)CC1 [compound 71, 4-Methyl-1′-(pyridin-3-ylsulfonyl)-1,4′-bipiperidine]
melting point: 144 to 147 °C

CC1CCN(C2CCN(S(=O)(=O)c3cccnc3Cl)CC2)CC1 [compound 72, 1′-((2-Chloropyridin-3-yl)sulfonyl)-4-methyl-1,4′-bipiperidine]
melting point: 122 to 124 °C

CC1CCN(C2CCN(S(=O)(=O)c3cccnc3F)CC2)CC1 [compound 73, 1′-((2-Fluoropyridin-3-yl)sulfonyl)-4-methyl-1,4′-bipiperidine]
melting point: 120 to 123 °C

CC1CCN(C2CCN(S(=O)(=O)c3ccc(Cl)nc3)CC2)CC1 [compound 74, 1′-((6-Chloropyridin-3-yl)sulfonyl)-4-methyl-1,4′-bipiperidine]
melting point: 178 to 182 °C

CC1CCN(C2CCN(S(=O)(=O)c3cncc(Br)c3)CC2)CC1 [compound 75, 1′-((5-Bromopyridin-3-yl)sulfonyl)-4-methyl-1,4′-bipiperidine]
melting point: 171 to 173 °C

CC1CCN(C2CCN(S(=O)(=O)c3cn(C)c(=O)n(C)c3=O)CC2)CC1 [compound 76, 1,3-Dimethyl-5-((4-methyl-[1,4′-bipiperidin]-1′-yl)sulfonyl)pyrimidine-2,4(1H,3H)-dione]
melting point: 212 to 215 °C

CC1CCN(C2CCN(S(=O)(=O)c3nccn3C)CC2)CC1 [compound 77, 4-Methyl-1′-((1-methyl-1H-imidazol-2-yl)sulfonyl)-1,4′-bipiperidine]
melting point: 153 to 156 °C

CC1CCN(C2CCN(S(=O)(=O)c3cn(C)cn3)CC2)CC1 [compound 78, 4-Methyl-1′-((1-methyl-1H-imidazol-4-yl)sulfonyl)-1,4′-bipiperidine]
melting point: 139 to 142 °C

Cc1noc(C)c1S(=O)(=O)N1CCC(N2CCC(C)CC2)CC1 [compound 79, 3,5-Dimethyl-4-((4-methyl-[1,4′-bipiperidin]-1′-yl)sulfonyl)isoxazole]
melting point: 158 to 161 °C

CC1CCN(C2CCN(S(=O)(=O)c3cnc(Cl)s3)CC2)CC1 [compound 80, 2-Chloro-5-((4-methyl-[1,4′-bipiperidin]-1′-yl)sulfonyl)thiazole]
melting point: 141 to 143 °C

Cc1nc(Cl)sc1S(=O)(=O)N1CCC(N2CCC(C)CC2)CC1 [compound 81, 2-Chloro-4-methyl-5-((4-methyl-[1,4′-bipiperidin]-1′-yl)sulfonyl)thiazole]
melting point: 117 to 119 °C

CC1CCN(C2CCN(S(=O)(=O)c3sc(Cl)nc3C3CC3)CC2)CC1 [compound 82, 2-Chloro-4-cyclopropyl-5-((4-methyl-[1,4′-bipiperidin]-1′-yl)sulfonyl)thiazole]
melting point: 139 to 141 °C

CC1CCN(C2CCN(S(=O)(=O)c3cc(Br)cc4c3OCC4)CC2)CC1 [compound 86, 1′-((5-Bromo-2,3-dihydrobenzofuran-7-yl)sulfonyl)-4-methyl-1,4′-bipiperidine]
melting point: 128 to 132 °C

CC1CCN(C2CCN(S(=O)(=O)c3ccc(Cl)c4ccccc34)CC2)CC1 [compound 88, 1′-((4-Chloronaphthalen-1-yl)sulfonyl)-4-methyl-1,4′-bipiperidine]
melting point: 129 to 132 °C

CC1CCN(C2CCN(S(=O)(=O)c3cccc4cnccc34)CC2)CC1 [compound 90, 5-((4-Methyl-[1,4′-bipiperidin]-1′-yl)sulfonyl)isoquinoline]
melting point: 123 to 126 °C

CC1CCCN(C2CCN(S(=O)(=O)c3ccc(OC(F)F)cc3)CC2)C1 (stereo not drawn) [compound 91, 1′-((4-(Difluoromethoxy)phenyl)sulfonyl)-3-methyl-1,4′-bipiperidine]
melting point: 88 to 91 °C

C#CCC1CCN(C2CCN(S(=O)(=O)c3ccc(Br)cc3)CC2)CC1 [compound 92, 1′-((4-Bromophenyl)sulfonyl)-4-(prop-2-yn-1-yl)-1,4′-bipiperidine]
melting point: 161 to 164 °C

Cc1cc(C)c(S(=O)(=O)N2CCC(N3CCC(CCO)CC3)CC2)c(C)c1 [compound 100, 2-(1′-(Mesitylsulfonyl)-[1,4′-bipiperidin]-4-yl)ethanol]
melting point: 82 to 85 °C

Cc1cc(C)c(S(=O)(=O)N2CCC(N3CCC(O)CC3)CC2)c(C)c1 [compound 101, 1′-(Mesitylsulfonyl)-[1,4′-bipiperidin]-4-ol]
melting point: 120 to 123 °C

Cc1cc(C)c(S(=O)(=O)N2CCC(N3CCC(c4ccccc4)CC3)CC2)c(C)c1 [compound 111, 1′-(Mesitylsulfonyl)-4-phenyl-1,4′-bipiperidine]
melting point: 141 to 144 °C

Cc1cc(C)c(S(=O)(=O)N2CCC(C(=O)N3CCC(C)CC3)CC2)c(C)c1 [compound 113, (1-(Mesitylsulfonyl)piperidin-4-yl 4-methylpiperidin-1-yl)methanone]
melting point: 122 to 124 °C

Cc1ccc(NC2CCN(S(=O)(=O)c3c(C)cc(C)cc3C)CC2)cc1 [compound 114, 1-(Mesitylsulfonyl)-N-(p-tolyl)piperidin-4-amine]
melting point: 148 to 151 °C

Cc1ccc(C2CCN(S(=O)(=O)c3c(C)cc(C)cc3C)CC2)cc1 [compound 115, 1-(Mesitylsulfonyl)-4-(p-tolyl)piperidine]
melting point: 87 to 90 °C

Cc1cc(C)c(S(=O)(=O)N2CCC(c3ccccc3)CC2)c(C)c1 [compound 116, 1-(Mesitylsulfonyl)-4-phenylpiperidine]
melting point: 88 to 90 °C

CCCC(=O)NC1CCN(S(=O)(=O)c2c(C)cc(C)cc2C)CC1 [compound 118, N-(1-(Mesitylsulfonyl)piperidin-4-yl)butyramide]
melting point: 144 to 147 °C

CC1CCN(C2CCN(C(=O)c3ccc(OC(F)(F)F)cc3)CC2)CC1 [compound 119, (4-Methyl-[1,4′-bipiperidin]-1′-yl)(4-(trifluoromethoxy)phenyl)methanone]
melting point: 72 to 75 °C

Cc1cc(C)c(S(=O)(=O)c2ccc(N3CCC(C)CC3)cc2)c(C)c1 [compound 125, 1-(4-(Mesitylsulfonyl)phenyl)-4-methylpiperidine]
melting point: 103 to 105 °C

Cc1cc(C)c(S(=O)(=O)N2CCN(C3CN4CCC3CC4)CC2)c(C)c1 (stereo not drawn) [compound 127, 3-(4-(Mesitylsulfonyl)piperazin-1-yl)quinuclidine]
melting point: > 300 °C

Cc1cc(C)c(S(=O)(=O)N2CCN(C34CC5CC(CC(C5)C3)C4)CC2)c(C)c1 [compound 128, 1-(Adamantan-1-yl)-4-(mesitylsulfonyl)piperazine]
melting point: 182 to 184 °C

Cc1cc(C)c(S(=O)(=O)N2CCC(NC3CCCC3)CC2)c(C)c1 [compound 132, N-cyclopentyl-1-(mesitylsulfonyl)piperidin-4-amine]
melting point: 88 to 92 °C

Cc1cc(C)c(S(=O)(=O)N2CCC(CO)CC2)c(C)c1 [compound 137, (1-(mesitylsulfonyl)piperidin-4-yl)methanol]
melting point: 85 to 88 °C

Cc1cc(C)c(S(=O)(=O)N2CCC(C=O)CC2)c(C)c1 [compound 138, 1-(mesitylsulfonyl)piperidine-4-carbaldehyde]
melting point: 71 to 74 °C

CC1CCN(CC2CCN(S(=O)(=O)c3ccc4ncsc4c3)CC2)CC1 [compound 148, 6-((4-((4-methylpiperidin-1-yl)methyl)piperidin-1-yl)sulfonyl)benzo[d]thiazole]
melting point: 137 to 139 °C
